In ChEMBL document CHEMBL1134135, “Nitrobenzene compounds inhibit expression of VCAM-1” (Bioorg Med Chem Lett, 2001):

Biological target: T1, Vascular cell adhesion protein 1 (Homo sapiens, UniProt P19320)
T1 sequence (P19320 whole entry): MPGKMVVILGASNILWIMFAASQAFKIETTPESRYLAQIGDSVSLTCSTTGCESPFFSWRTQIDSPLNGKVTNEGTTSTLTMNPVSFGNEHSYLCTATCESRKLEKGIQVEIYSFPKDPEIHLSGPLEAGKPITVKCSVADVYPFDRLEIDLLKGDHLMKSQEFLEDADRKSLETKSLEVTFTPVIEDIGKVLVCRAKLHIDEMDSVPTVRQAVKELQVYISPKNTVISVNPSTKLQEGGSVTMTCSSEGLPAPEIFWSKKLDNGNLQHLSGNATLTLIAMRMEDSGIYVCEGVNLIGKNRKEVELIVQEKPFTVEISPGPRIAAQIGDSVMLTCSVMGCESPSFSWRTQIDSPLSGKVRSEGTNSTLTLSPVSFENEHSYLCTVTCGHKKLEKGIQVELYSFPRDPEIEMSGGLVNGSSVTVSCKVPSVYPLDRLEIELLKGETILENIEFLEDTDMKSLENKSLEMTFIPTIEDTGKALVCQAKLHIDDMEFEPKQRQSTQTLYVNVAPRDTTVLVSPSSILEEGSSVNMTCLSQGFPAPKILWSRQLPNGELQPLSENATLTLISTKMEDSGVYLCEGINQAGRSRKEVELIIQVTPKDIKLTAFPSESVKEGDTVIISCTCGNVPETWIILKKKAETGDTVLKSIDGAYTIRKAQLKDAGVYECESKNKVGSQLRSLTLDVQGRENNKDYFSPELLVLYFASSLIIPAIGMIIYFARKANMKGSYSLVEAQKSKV
Assay: Ability to inhibit expression of Vascular cell adhesion molecule 1; No effect; call rule not given here

IC50 | SMILES
Not Active | O=C(O)C1CCN(S(=O)(=O)c2ccc(Cl)c([N+](=O)[O-])c2)CC1
Not Active | CCN(CC)c1ccc(S(=O)(=O)N(CC)CC)cc1[N+](=O)[O-]
Not Active | CCN(CC)S(=O)(=O)c1ccc(Cl)cc1
Not Active | CCN(CC)S(=O)(=O)c1cccc([N+](=O)[O-])c1

SMILES | IC50
O=[N+]([O-])c1ccccc1Cl | Not Active
N#Cc1cc(Cl)cc(Cl)c1 | Not Active
